Values quoted from earlier work in PMC10366102, “Dose escalation and expansion cohorts in patients with advanced breast cancer in a Phase I study of the CDK7-inhibitor samuraciclib” (Nature Communications, 2023).

Experiments:
[1] = tested on: PIK3CA-mutated HR+ advanced breast cancer; design: method as in PMID 33794206; settings: PIK3CA mutation, post CDK4/6 inhibitor; cited from earlier work
[2] = tested on: HR+ metastatic breast cancer; design: method as in PMID 33230905; settings: after CDK4/6 inhibitor; cited from earlier work

SMILES	Median PFS [1] [months]	Median duration of treatment [2] [months]
Cc1nc(NC(=O)N2CCC[C@H]2C(N)=O)sc1-c1ccnc(C(C)(C)C(F)(F)F)c1 [Alpelisib]	7.3	–
CO[C@H]1C[C@@H]2CC[C@@H](C)[C@@](O)(O2)C(=O)C(=O)N2CCCC[C@H]2C(=O)O[C@H]([C@H](C)C[C@@H]2CC[C@@H](OCCO)[C@H](OC)C2)CC(=O)[C@H](C)/C=C(\C)[C@@H](O)[C@@H](OC)C(=O)[C@H](C)C[C@H](C)/C=C/C=C/C=C/1C [everolimus]	–	3.6
